In ChEMBL document CHEMBL1201862, “PubChem BioAssay data set” (2004):
Activity calls are given as the source filed them.

What was measured:
[1] = luciferase reporter signal suppression in cells – H4 neuroglioma cells, luminescence, dose response (AID 1990); assay type: functional, cell-based
[2] = Luminescence Cell-Based Dose Response HTS to Identify Inhibitors of 5'UTR Stem-Loop Driven Prion Protein mRNA Translation in H4 Neuroglioblastoma Cells. [Related pubchem assays: 1827 (Project Summary), 1813 (Primary HTS)]; assay type: functional
[3] = alpha-synuclein stem-loop luciferase translation blockers – H4 neuroglioma cells, luminescence, confirmation (AID 1988); assay type: functional, cell-based
[4] = target: FAD-linked sulfhydryl oxidase ALR (Homo sapiens, UniProt P55789); assay: ALR-catalysed DTT oxidation blockers – biochemical, H2O2 detection, luminescence, cherry-pick, dose response (AID 493248)
Sequence of FAD-linked sulfhydryl oxidase ALR (P55789 whole entry): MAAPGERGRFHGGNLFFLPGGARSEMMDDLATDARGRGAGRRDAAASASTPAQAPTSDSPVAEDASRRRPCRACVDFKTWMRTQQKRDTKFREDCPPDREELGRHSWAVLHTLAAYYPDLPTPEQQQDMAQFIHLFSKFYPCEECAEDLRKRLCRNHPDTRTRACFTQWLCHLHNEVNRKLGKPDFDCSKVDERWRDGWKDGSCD

H9c2 = assay: cells; assay type: functional, cell-based; conditions: Rattus norvegicus, H9c2, Myocardium;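 also: confirmatory concentration-response retest of ultra-high-throughput screening hits for modulation of myocardial damage; cell death induced by hydrogen peroxide oxidative stress; compound pretreatment for 60 min then peroxide exposure for 2 h; potency is for protecting the cells against peroxide damage rather than for killing them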
[5] = Luminescence Cell-Based Dose Retest to Confirm Inhibitors of Cancer Stem Cells. [Related pubchem assays (depositor defined):AID2717, AID2721]; assay type: functional; conditions: Homo sapiens
INS1 = assay: INS-1E survival protection against cytokine death – cell-based, luminescence, retest, dose response (AID 449756); assay type: functional; conditions: Rattus norvegicus;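 also: cell death triggered by IL-1 beta plus TNF-alpha plus IFN-gamma mixture; protective hits raise ATP signal compared with cytokine alone wells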
[6] = target: T1, Corticotropin-releasing factor receptor 2/Corticotropin-releasing factor-binding protein (Homo sapiens, UniProt P24387+Q13324); assay: Dose Response confirmation of uHTS hits for small molecule antagonists of the CRF-binding protein and CRF-R2 receptor complex.; assay type: functional; conditions: read-out: IC50_Mean
T1 sequence (Q13324 whole entry): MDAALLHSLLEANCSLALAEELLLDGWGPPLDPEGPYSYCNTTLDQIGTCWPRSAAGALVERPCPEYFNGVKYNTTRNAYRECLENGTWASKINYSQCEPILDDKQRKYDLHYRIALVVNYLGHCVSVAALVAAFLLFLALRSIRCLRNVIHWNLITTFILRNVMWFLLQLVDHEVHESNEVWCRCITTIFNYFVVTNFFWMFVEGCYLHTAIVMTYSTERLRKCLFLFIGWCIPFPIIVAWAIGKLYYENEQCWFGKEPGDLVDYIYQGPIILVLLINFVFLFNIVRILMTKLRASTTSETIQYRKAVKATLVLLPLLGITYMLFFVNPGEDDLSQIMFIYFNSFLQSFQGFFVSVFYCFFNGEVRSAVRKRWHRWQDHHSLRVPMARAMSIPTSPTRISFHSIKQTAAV
T1 sequence (P24387 whole entry): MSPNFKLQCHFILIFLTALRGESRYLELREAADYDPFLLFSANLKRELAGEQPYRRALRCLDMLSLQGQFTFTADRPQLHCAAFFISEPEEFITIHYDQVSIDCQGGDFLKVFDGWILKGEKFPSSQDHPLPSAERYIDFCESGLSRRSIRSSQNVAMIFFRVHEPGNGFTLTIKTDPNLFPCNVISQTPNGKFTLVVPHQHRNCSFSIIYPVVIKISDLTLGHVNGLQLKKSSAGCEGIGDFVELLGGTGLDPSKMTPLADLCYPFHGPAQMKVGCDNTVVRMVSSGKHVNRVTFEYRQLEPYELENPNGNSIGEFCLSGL

[7] = target: T1, Corticotropin-releasing factor receptor 2/Corticotropin-releasing factor-binding protein; assay: activators of CRF receptor 2 with binding protein – uHTS hits, confirmation (AID 602473); assay type: functional; conditions: read-out: EC50_Mean
Cytochrome P450 2C19 = Cytochrome P450 2C19 (Homo sapiens, UniProt P33261); assay: Cytochrome panel assay with activity outcomes. Panel member name: p450-cyp2c19 Compounds with AC50 equal or less than 10 uM are considered active; assay type: functional; conditions: read-out: AC50
Sequence of Cytochrome P450 2C19 (P33261 whole entry): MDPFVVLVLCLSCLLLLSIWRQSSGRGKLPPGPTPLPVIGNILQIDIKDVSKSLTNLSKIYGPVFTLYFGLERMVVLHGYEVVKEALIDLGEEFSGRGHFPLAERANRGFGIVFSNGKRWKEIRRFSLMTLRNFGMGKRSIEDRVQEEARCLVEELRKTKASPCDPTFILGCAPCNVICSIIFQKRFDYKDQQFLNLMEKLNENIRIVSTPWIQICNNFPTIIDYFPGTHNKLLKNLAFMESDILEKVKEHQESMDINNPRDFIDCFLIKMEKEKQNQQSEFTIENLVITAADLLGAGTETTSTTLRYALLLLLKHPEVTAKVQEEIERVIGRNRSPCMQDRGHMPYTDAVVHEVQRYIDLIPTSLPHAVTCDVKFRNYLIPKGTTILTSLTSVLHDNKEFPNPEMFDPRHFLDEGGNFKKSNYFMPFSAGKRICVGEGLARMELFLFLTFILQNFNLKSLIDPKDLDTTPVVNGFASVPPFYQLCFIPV

Cytochrome P450 2D6 = Cytochrome P450 2D6 (Homo sapiens, UniProt P10635);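 also: CYP2D6 member of a cytochrome P450 panel assay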
Sequence of Cytochrome P450 2D6 (P10635 whole entry): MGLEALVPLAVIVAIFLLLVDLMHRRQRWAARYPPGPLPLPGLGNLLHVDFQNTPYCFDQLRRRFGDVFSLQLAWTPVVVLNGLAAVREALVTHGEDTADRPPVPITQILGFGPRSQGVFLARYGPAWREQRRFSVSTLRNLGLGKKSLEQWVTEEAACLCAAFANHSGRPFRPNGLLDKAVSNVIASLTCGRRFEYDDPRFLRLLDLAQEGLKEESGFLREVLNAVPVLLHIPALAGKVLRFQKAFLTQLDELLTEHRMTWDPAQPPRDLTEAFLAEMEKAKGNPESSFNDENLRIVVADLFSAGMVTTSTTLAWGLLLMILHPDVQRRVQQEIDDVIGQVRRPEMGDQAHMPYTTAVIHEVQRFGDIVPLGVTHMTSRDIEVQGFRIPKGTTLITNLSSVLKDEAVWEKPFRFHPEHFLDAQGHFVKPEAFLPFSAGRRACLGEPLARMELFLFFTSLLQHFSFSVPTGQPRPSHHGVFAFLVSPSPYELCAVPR

In the case of `CCC(C)(C)n1nnnc1CN(Cc1cccs1)Cc1cc2cc(OC)ccc2nc1O`, the EC50 [1] is reported as 30.6 µM (active), the EC50 [2] is reported as > 120 µM (not active) and the EC50 [3] is reported as > 120 µM (not active).

For `O=C(NCC(c1cccnc1)N1CCN(c2ccccc2)CC1)C1CCCCC1` (centres undefined), the AC50 [4] was 19.4 µM (active).

In the case of `Cc1ccccc1N(C(=O)c1snc(C(N)=O)c1N)C(C(=O)NCc1ccccc1)c1ccc(O)cc1` (centres undefined), the IC50 (H9c2) is reported as > 79 µM (inactive).

With `O=C(c1ccc(Cl)cc1)c1c[nH]c(C(=O)NNc2ccccc2)c1` the AC50 [5] was 1.34 µM (active).

With `Cc1ccccc1CN(C)CC(=O)Nc1cccc(S(=O)(=O)N(C)c2ccccc2)c1` the EC50 [1] was > 120 µM (not active), the EC50 [2] was > 120 µM (not active) and the EC50 [3] was > 120 µM (not active).

For `COc1ccc(CCNC(=O)c2cc3c(=O)n4cccc(C)c4nc3n(Cc3ccco3)c2=N)cc1OC`, the AC50 (INS1) was 8.24 µM (active).

In the case of `CCN(CC)c1ccc(CN2CCCCCC2)cc1`, the AC50 [4] is reported as 3.84 µM (active).

For `Cc1csc2ncnc(N3CCN(C(S)=Nc4ccc(C(F)(F)F)cc4)CC3)c12`, the EC50 [1] was > 120 µM (not active), the EC50 [2] was > 120 µM (not active) and the EC50 [3] was > 120 µM (not active).

In the case of `CCN(CCCNC(=O)C1CCC(=O)N1Cc1ccc(C)cc1)c1cccc(C)c1` (centres undefined), the AC50 [4] is reported as 0.677 µM (active).

With `CC(C)(C)c1ccc(NC(=O)N2CCCN(c3c(Cl)cncc3Cl)CC2)cc1` the AC50 [5] was 0.601 µM (active).

With `CC(C)CC(C(=O)NC1CCCCC1)N(Cc1cccs1)C(=O)c1snc(C(N)=O)c1N` (centres undefined) the IC50 (H9c2) was > 79 µM (inactive).

With `Fc1ccc(-c2cc(-c3nnc4n3CCCCC4)c3ccccc3n2)cc1` the AC50 (INS1) was 11.2 µM (active).

In the case of `CCN(c1ccc(NC(=O)COC(=O)c2ccc([N+](=O)[O-])o2)cc1)C(C)C`, the IC50 (H9c2) is reported as > 79 µM (inactive).

With `CCCCC(=O)NNC(=O)N1c2ccccc2Sc2ccccc21` the AC50 [4] was 0.919 µM (active).

With `CCC1CCCCN1CCCNC(=O)c1cn(C)c2ccc(S(=O)(=O)N(C)C3CCCCC3)cc2c1=O` (centres undefined) the IC50 [6] was > 47.1 µM (inactive) and the EC50 [7] was > 53 µM (inactive).

With `COc1ccccc1C(=O)NC(=O)COC(=O)Cn1[nH]c(=O)c2ccccc2c1=O` the IC50 (H9c2) was > 79 µM (inactive).

In the case of `Nc1nc(OCC2CCCCC2)c2nc[nH]c2n1`, the EC50 [1] is reported as 16.5 µM (active), the EC50 [2] is reported as 15.8 µM (active) and the EC50 [3] is reported as 13.7 µM (active).

In the case of `O=C1C2C3C=CC(C3)C2C(=O)N1/N=C/c1cn(Cc2ccccc2)c2ccccc12` (centres undefined), the EC50 [1] is reported as 11 µM (active), the EC50 [2] is reported as 12.5 µM (active) and the EC50 [3] is reported as 2.2 µM (active). The AC50 (Cytochrome P450 2C19) was 8.91 µM (inconclusive) and the AC50 (Cytochrome P450 2D6) was 39.8 µM (inconclusive).

In the case of `Cc1ccc(/N=C2\C=C(O)C(=O)c3ccccc32)c(C)c1`, the AC50 (INS1) is reported as 2.06 µM (active).

With `CCN(CC)c1ccc(/C=N/NC(=O)c2cccc(N3CCCC3=O)c2)cc1` the AC50 [4] was 2.14 µM (active).

For `COc1cc(/C=N/NC(=O)C2C3CCCCC32C)cc(Br)c1O` (centres undefined), the AC50 [4] was 0.272 µM (active).
